Paper PMC7729925, “Selective hepatitis B and D virus entry inhibitors from the group of pentacyclic lupane-type betulin-derived triterpenoids” (Scientific Reports, 2020)
Where two headings read alike, the source gives them in different places.

Legend:
[1] = test system: rats; conditions: single i.p. application of 400 mg/kg; cited from earlier work
[2] = test system: HDV; test: in vitro HDV infection of NTCP-HepG2 cells; format: cell-based; conditions: for inhibition of in vitro HDV infection: 5–300 µM (2, 19) or 5–600 µM (4, 17), 6 h with 700 genome equivalents/cell, HDAg immunostaining day 9
Method: At day 9 post infection, cells were fixed and an immunostaining against the HDAg was performed, as a marker of HDV infection. The number of infected cells per well was determined by fluorescence microscopy. NTCP-HepG2 cells incubated without inhibitor were used as control (set to 100% infection rate). Infection experiments in the presence of 0.5 µM myr-preS1_2-48 peptide served as control for the 0% infection rate. Scale bars: 100 µm. Data represent means ± SEM of three independent experiments each with triplicate determinations (n = 9). […] Data were combined from two independent experiments, each with quadruplicate determinations (n = 8). (h) Cell viability was determined with an LDH cytotoxicity assay. HepG2 cells treated with HGM w/o test compound were used as positive control and lysed cells as negative control.
For infection experiments NTCP-HepG2 cells were cultured in 96-well plates in Hepatocyte Growth Medium (HGM) consisting of William’s E Medium (Thermo Fisher Scientific) containing 2% bovine serum albumin (BSA, Roth), 2 mM L-Glutamin (Thermo Fisher Scientific), 100 µg/ml gentamicin (Thermo Fisher Scientific), 10 nM dexamethasone (Sigma-Aldrich), 1 mM sodium pyruvate (Thermo Fisher Scientific), 1 × Insulin-Transferrin-Selen (Thermo Fisher Scientific), 2% DMSO (Merck, Darmstadt, Germany), 4% polyethylene glycol (Sigma-Aldrich) and 2 µg/ml doxycycline (Sigma-Aldrich) as reported. Subsequently, cells were washed with DMEM and cultured in HGM supplemented with 2% DMSO, 2% BSA and 2 µg/ml doxycycline. […] HDV stock solved in 20 µl HGM per well was added for infection and cells were incubated for 6 h with final concentration of 700 genome equivalents/cell of HDV particles. HDV production was done in vitro as described before[55],[56]. RT-qPCR was performed to determine genome equivalents. Every three days medium was changed until cells were fixed at 9 days post infection with 3% paraformaldehyde (Sigma-Aldrich) in PBS, for 30 min at room temperature (RT). Cells were permeabilized with 0.2% Triton X 100 (Roth) in PBS for 30 min at RT, and blocked by incubation with 5% bovine serum albumin (Roth) in PBS, for 30 min at RT. Then, cells were immunostained with purified human anti-HDV-positive serum at 37 °C for 1 h (1:400 dilution). Goat anti-human IgG secondary antibody coupled to Alexa Fluor fluorophore (1:400 dilution, Thermo Fisher Scientific) was added for 1 h at 37 °C for detection of Hepatitis Delta antigen (HDAg) as described before.

[3] = test system: mice; conditions: cited from earlier work
[4] = target: T1, NTCP (Homo sapiens, UniProt Q14973); test: [3H]preS1 (myr-preS1_2-48 lipopeptide) binding inhibition in NTCP-HEK293 cells; conditions: for IC50: NTCP-HEK293 cells
T1 construct: expressed in transfected cells
T1 sequence (Q14973 1-349): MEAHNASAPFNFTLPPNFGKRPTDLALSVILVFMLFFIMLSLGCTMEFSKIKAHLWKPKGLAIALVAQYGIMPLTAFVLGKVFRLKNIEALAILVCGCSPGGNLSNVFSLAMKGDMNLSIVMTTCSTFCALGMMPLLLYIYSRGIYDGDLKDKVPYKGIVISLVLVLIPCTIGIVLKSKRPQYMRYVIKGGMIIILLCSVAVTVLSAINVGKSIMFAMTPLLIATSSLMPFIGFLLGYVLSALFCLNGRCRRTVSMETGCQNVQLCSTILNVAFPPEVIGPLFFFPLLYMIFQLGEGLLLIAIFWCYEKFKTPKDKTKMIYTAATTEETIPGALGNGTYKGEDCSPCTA
Method: (§1) The major goal of the present study was to analyze in parallel the effect of inhibitors on both, bile acid transport via NTCP and myr-preS1_2-48 lipopeptide binding to NTCP in a cell culture system. […] NTCP-HEK293 cells were seeded onto 96-well plates and were incubated with tetracycline in order to induce expression of the human NTCP protein. […] Experiments were performed with solvent alone (set to 100%) and with increasing concentrations of the indicated inhibitors. […] Half maximal inhibitory concentrations (IC50) were calculated by nonlinear regression analysis using the equation log(inhibitor) versus response (GraphPad Prism). […] Data represent means ± SD of quadruplicate determinations of representative experiments. […] In parallel, [^3H]preS1 peptide binding experiments were performed with a tritium-labelled myr-preS1_2-48 lipopeptide -HBV subgenotype D3- that was purchased from Pharmaron (120 Ci/mmol, 1 mCi/ml, Cardiff, UK). […] Experiments were stopped after 10 min by two-times washing with ice-cold PBS. For 0% uptake/binding control, the NTCP-HEK293 cells were not induced with tetracycline (-tet). […] Transport rates and [^3H]preS1 binding were determined in counts per minute (cpm). […] IC50 values were calculated from quadruplicate determinations by GraphPad Prism 6 (GraphPad, San Diego, CA, USA).

[5] = target: T1, NTCP; test: [3H]TC transport (bile acid uptake) inhibition in NTCP-HEK293 cells; format: cell-based; conditions: read-out: IC50 ([3H]TC uptake)
Method: as §1

[6] = target: T1, NTCP; design: method as in earlier work; conditions: ref 25 (Shimura et al.); read-out: IC50 bile acid transport inhibition; cited from earlier work
[7] = test system: HBV; design: method as in earlier work; conditions: ref 25 (Shimura et al.); read-out: IC50 in vitro HBV infection; cited from earlier work
[8] = test system: HBV/HDV; design: method as in PMID 15650187; conditions: cited from earlier work

In the case of `C=C(C)[C@@H]1CC[C@]2(C(=O)O)CC[C@]3(C)[C@H](CC[C@@H]4[C@@]5(C)CC[C@H](O)C(C)(C)[C@@H]5CC[C@]43C)[C@@H]12` [Compound 4, Betulinic acid], the “toxic effects in rats” value [1] is listed as “no toxic effects were observed”, the “inhibition of in vitro HDV infection” value [2] is listed as “significantly blocked” and the “toxic effects in mice, repeated dose” value ([3]; 100 mg/kg i.p. every 3–4 days for a total of six treatments) is listed as “no toxic effects were observed”. For the same compound, the “toxic effects in mice, single dose” value ([3]; 500 mg/kg i.p. once) was “no toxic effects were observed”.
In the case of `C=C(C)[C@@H]1CC[C@]2(C)CC[C@]3(C)[C@H](CC[C@@H]4[C@@]5(C)CCC(=O)C(C)(C)[C@@H]5CC[C@]43C)[C@@H]12` [Compound 17, Lupenone], the IC50 ([4]; IC50 ([3H]preS1 binding), 95% confidence interval, inhibition of 5 nM [3H]preS1 binding, 10 min, 37 °C) is reported as 13.1 to 35.5 µM, the IC50 ([4]; IC50 [3H]preS1 binding inhibition, mean IC50, 5 nM [3H]preS1, standard pH 7.4) is reported as 11 to 50 µM and the “inhibition of in vitro HDV infection” value [2] is reported as “significantly blocked”. For the same compound, the IC50 [5] was 146 to 397 µM.
For `C=C(C)[C@@H]1CC[C@]2(C(=O)N[C@@H](CC(=O)OC)C(=O)OC)CC[C@]3(C)[C@H](CC[C@@H]4[C@@]5(C)CCC(=O)C(C)(C)[C@@H]5CC[C@]43C)[C@@H]12` [Compound 19, Betulonoyl dimethyl-L-aspartate], the IC50 ([4]; mean IC50, 5 nM [3H]preS1, standard pH 7.4, read-out: IC50 [3H]preS1 binding inhibition) was 11 to 50 µM, the Selectivity index ([4]; ratio of mean IC50 [3H]TC transport inhibition / IC50 [3H]preS1 binding inhibition) was 28 and the “inhibition of in vitro HDV infection” value [2] was “significantly blocked”. For the same compound, the IC50 ([5]; 95% confidence interval, inhibition of 1 µM [3H]TC uptake, NTCP-HEK293 cells, 10 min, 37 °C) was 298 to 1430 µM.
For `CC=CCC(C)C(O)C1C(=O)NC(CC)C(=O)N(C)C(OCCOC)C(=O)N(C)C(CC(C)(C)O)C(=O)NC(C(C)C)C(=O)N(C)C(CC(C)C)C(=O)NC(C)C(=O)NC(C)C(=O)N(C)C(CC(C)C)C(=O)N(C)C(CC(C)C)C(=O)N(C)C(C(C)C)C(=O)N1C` (stereo not shown) [SCY995], the IC50 [6] is listed as > 25 µM and the IC50 [7] is listed as < 8 µM.
For `CCCCCCCCCCCCCC(=O)NCC(=O)N[C@@H](CCC(N)=O)C(=O)N[C@@H](CC(N)=O)C(=O)N[C@@H](CC(C)C)C(=O)N[C@@H](CO)C(=O)N[C@H](C(=O)N[C@@H](CO)C(=O)N[C@@H](CC(N)=O)C(=O)N1CCC[C@H]1C(=O)N[C@@H](CC(C)C)C(=O)NCC(=O)N[C@@H](Cc1ccccc1)C(=O)N[C@@H](Cc1ccccc1)C(=O)N1CCC[C@H]1C(=O)N[C@@H](CC(=O)O)C(=O)N[C@@H](Cc1c[nH]cn1)C(=O)N[C@@H](CCC(N)=O)C(=O)N[C@@H](CC(C)C)C(=O)N[C@@H](CC(=O)O)C(=O)N1CCC[C@H]1C(=O)N[C@@H](C)C(=O)N[C@@H](Cc1ccccc1)C(=O)N[C@@H](CCCNC(=N)N)C(=O)N[C@@H](C)C(=O)N[C@@H](CC(N)=O)C(=O)N[C@H](C(=O)N[C@@H](C)C(=O)N[C@@H](CC(N)=O)C(=O)N1CCC[C@H]1C(=O)N[C@@H](CC(=O)O)C(=O)N[C@@H](Cc1c[nH]c2ccccc12)C(=O)N[C@@H](CC(=O)O)C(=O)N[C@@H](Cc1ccccc1)C(=O)N[C@@H](CC(N)=O)C(=O)N1CCC[C@H]1C(=O)N[C@@H](CC(N)=O)C(=O)N[C@@H](CCCCN)C(=O)N[C@@H](CC(=O)O)C(=O)N[C@H](C(=O)N[C@@H](Cc1c[nH]c2ccccc12)C(=O)N1CCC[C@H]1C(=O)N[C@@H](CC(=O)O)C(=O)N[C@@H](C)C(=O)N[C@@H](CC(N)=O)C(=O)N[C@@H](CCCCN)C(=O)N[C@H](C(=O)NCC(N)=O)C(C)C)[C@@H](C)O)[C@@H](C)O)[C@@H](C)O` [myr-preS1_2-48 lipopeptide, reference compound], the “IC50 of in vitro HBV/HDV infection” value [8] is given as “low nanomolar range” and the “in vitro HDV infection with peptide control” value ([2]; co-incubation with 0.5 µM, set to 0% infection rate) is given as “completely abolished infection”.
